Measured values from patent publication US20210380606A1, “5-AZAINDAZOLE DERIVATIVES AS ADENOSINE RECEPTOR ANTAGONISTS” (Merck Patent GmbH, priority 2018, published 2021).

Columns and labels:
human A2B receptors = molecular target: T1, human A2B receptors (Homo sapiens, UniProt P29275); experiment: Functional human A2B receptor activity, recombinant HEK293 cells, cAMP (HTRF); assay type: cell-based; settings: read-out: A2B (Category)
T1 construct: expressed in transfected cells; host or cells: HEK293
T1 sequence (P29275 1-332): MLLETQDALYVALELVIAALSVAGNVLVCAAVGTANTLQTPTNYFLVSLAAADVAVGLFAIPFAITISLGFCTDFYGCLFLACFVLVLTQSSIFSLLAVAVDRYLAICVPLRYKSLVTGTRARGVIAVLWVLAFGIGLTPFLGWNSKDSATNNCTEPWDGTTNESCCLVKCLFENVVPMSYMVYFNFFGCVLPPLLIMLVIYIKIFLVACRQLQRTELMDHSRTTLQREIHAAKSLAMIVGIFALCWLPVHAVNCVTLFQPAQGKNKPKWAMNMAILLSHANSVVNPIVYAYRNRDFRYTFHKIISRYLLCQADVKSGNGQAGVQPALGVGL
How it was run: (§1)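 cAMP accumulation, determined by HTRF after a 15 min incubation, served as the functional measure of receptor activity.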

human A2A receptors = molecular target: T2, human A2A receptors (Homo sapiens, UniProt P29274); experiment: Functional human A2A receptor activity, recombinant HEK293 cells, cAMP (HTRF); assay type: cell-based; settings: read-out: A2A (Category)
T2 construct: expressed in transfected cells; host or cells: HEK293
How it was run: as §1

T2 sequence (P29274 whole entry): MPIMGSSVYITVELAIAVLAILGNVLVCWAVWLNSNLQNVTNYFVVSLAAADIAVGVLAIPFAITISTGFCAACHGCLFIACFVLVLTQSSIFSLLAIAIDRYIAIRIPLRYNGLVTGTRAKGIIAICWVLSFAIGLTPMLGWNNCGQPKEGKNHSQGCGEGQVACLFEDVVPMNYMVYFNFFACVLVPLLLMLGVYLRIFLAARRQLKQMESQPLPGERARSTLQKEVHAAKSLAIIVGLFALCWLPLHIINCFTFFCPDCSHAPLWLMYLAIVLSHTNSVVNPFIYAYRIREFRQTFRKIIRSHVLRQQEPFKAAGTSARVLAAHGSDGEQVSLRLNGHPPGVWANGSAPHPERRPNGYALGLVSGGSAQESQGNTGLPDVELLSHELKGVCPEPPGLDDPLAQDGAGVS

SMILES | IC50 (human A2B receptors) [nM] | IC50 (human A2A receptors) [nM]
CN(CCNC(=O)OC(C)(C)C)C(=O)c1cc2c(cn1)c(-c1cnc3c(F)cc(F)cn13)nn2CC(F)(F)F [Compound 197, (2-{[3-(6,8-Difluoro-imidazo[1,2-a]pyridin-3-yl)-1-(2,2,2-trifluoro-ethyl)-1H-pyrazolo[4,3-c]pyridine-6-carbonyl]-methyl-amino}-ethyl)-carbamic Acid Tert-Butyl Ester] | < 1000 | < 100
O=C(c1cc2c(cn1)c(-c1cnc3c(F)cc(F)cn13)nn2CC(F)(F)F)N1CC2COC(C2)C1 (stereo not shown) [Compound 199, [3-(6,8-Difluoro-imidazo[1,2-a]pyridin-3-yl)-1-(2,2,2-trifluoro-ethyl)-1H-pyrazolo[4,3-c]pyridin-6-yl]-(6-oxa-3-aza-bicyclo[3.2.1]oct-3-yl)-methanone] | < 1000 | < 100
CC(C)(C)OC(=O)NC1COCCN(C(=O)c2cc3c(cn2)c(-c2cnc4c(F)cc(F)cn24)nn3CC(F)(F)F)C1 (stereo not shown) [Compound 204, {4-[3-(6,8-Difluoro-imidazo[1,2-a]pyridin-3-yl)-1-(2,2,2-trifluoro-ethyl)-1H-pyrazolo[4,3-c]pyridine-6-carbonyl]-1,4-oxazepan-6-yl}-carbamic Acid Tert-Butyl Ester] | < 1000 | < 100
O=C(c1cc2c(cn1)c(-c1cnc3c(F)cc(F)cn13)nn2CC(F)(F)F)N1CCOC2CC21 (stereo not shown) [Compound 205, [3-(6,8-Difluoro-imidazo[1,2-a]pyridin-3-yl)-1-(2,2,2-trifluoro-ethyl)-1H-pyrazolo[4,3-c]pyridin-6-yl]-(2-oxa-5-aza-bicyclo[4.1.0]hept-5-yl)-methanone] | < 1000 | < 100
O=C(c1cc2c(cn1)c(-c1coc3ccccc13)nn2CC(F)(F)F)N1CCC(O)CC1 [Compound 207, [3-Benzofuran-3-yl-1-(2,2,2-trifluoro-ethyl)-1H-pyrazolo[4,3-c]pyridin-6-yl]-(4-hydroxy-piperidin-1-yl)-methanone] | < 100 | < 100
O=C(c1cc2c(cn1)c(-c1coc3ccccc13)nn2CC(F)(F)F)N1[C@@H]2CC[C@H]1C[C@@H](O)C2 [Compound 209, [3-Benzofuran-3-yl-1-(2,2,2-trifluoro-ethyl)-1H-pyrazolo[4,3-c]pyridin-6-yl]-(3-endo-hydroxy-8-aza-bicyclo[3.2.1]oct-8-yl)-methanone] | < 100 | < 100
CC1(O)CC2CC1CN2C(=O)c1cc2c(cn1)c(-c1coc3ccccc13)nn2CC(F)(F)F (stereo not drawn) [Compound 211, [3-Benzofuran-3-yl-1-(2,2,2-trifluoro-ethyl)-1H-pyrazolo[4,3-c]pyridin-6-yl]-(5-endo-hydroxy-5-exo-methyl-2-aza-bicyclo[2.2.1]hept-2-yl)-methanone] | < 1000 | < 100
C[C@]1(O)[C@@H]2CC[C@H]1CN(C(=O)c1cc3c(cn1)c(-c1coc4ccccc14)nn3CC(F)(F)F)C2 [Compound 212, [3-Benzofuran-3-yl-1-(2,2,2-trifluoro-ethyl)-1H-pyrazolo[4,3-c]pyridin-6-yl]-(8-endo-hydroxy-8-exo-methyl-3-aza-bicyclo[3.2.1]oct-3-yl)-methanone] | < 1000 | < 100
COCC1CCCN1C(=O)c1cc2c(cn1)c(-c1coc3ccccc13)nn2CC(F)(F)F (stereo not shown) [Compound 215, [3-Benzofuran-3-yl-1-(2,2,2-trifluoro-ethyl)-1H-pyrazolo[4,3-c]pyridin-6-yl]-(2-methoxymethyl-pyrrolidin-1-yl)-methanone] | < 1000 | < 100
O=C(c1cc2c(cn1)c(-c1coc3ccccc13)nn2CC(F)(F)F)N1CCC(F)CC1 [Compound 216, [3-Benzofuran-3-yl-1-(2,2,2-trifluoro-ethyl)-1H-pyrazolo[4,3-c]pyridin-6-yl]-(4-fluoro-piperidin-1-yl)-methanone] | < 1000 | < 100
O=C(c1cc2c(cn1)c(-c1coc3ccccc13)nn2CC(F)(F)F)N1CCOCC(F)(F)C1 [Compound 217] | < 100 | < 100
O=C(c1cc2c(cn1)c(-c1coc3ccccc13)nn2CC(F)(F)F)N1CC2CCC(C1)C2O (stereo not drawn) [Compound 218, [3-Benzofuran-3-yl-1-(2,2,2-trifluoro-ethyl)-1H-pyrazolo[4,3-c]pyridin-6-yl]-(8-endo-hydroxy-3-aza-bicyclo[3.2.1]oct-3-yl)-methanone] | < 100 | < 100
O=C(c1cc2c(cn1)c(-c1coc3ccccc13)nn2CC(F)F)N1C2CCC1CC(O)C2 (stereo not drawn) [Compound 220, [3-Benzofuran-3-yl-1-(2,2-difluoro-ethyl)-1H-pyrazolo[4,3-c]pyridin-6-yl]-(3-endo-hydroxy-8-exo-methyl-3-aza-bicyclo[3.2.1]oct-3-yl)-methanone] | < 1000 | < 100

Next, values leading:

IC50 (human A2B receptors) [nM] | IC50 (human A2A receptors) [nM] | SMILES
< 100 | < 100 | CC(C)(C)OC(=O)N1CC2CC1CN2C(=O)c1cc2c(cn1)c(-c1cnc3c(F)cc(F)cn13)nn2CC(F)(F)F (stereo not shown) [Compound 194, 5-[3-(6,8-Difluoro-imidazo[1,2-a]pyridin-3-yl)-1-(2,2,2-trifluoro-ethyl)-1H-pyrazolo[4,3-c]pyridine-6-carbonyl]-2,5-diaza-bicyclo[2.2.1]heptane-2-carboxylic Acid Tert-Butyl Ester]
< 1000 | < 100 | O=C1CN(C(=O)c2cc3c(cn2)c(-c2cnc4c(F)cc(F)cn24)nn3CC(F)(F)F)CCCN1 [Compound 201, 4-[3-(6,8-Difluoro-imidazo[1,2-a]pyridin-3-yl)-1-(2,2,2-trifluoro-ethyl)-1H-pyrazolo[4,3-c]pyridine-6-carbonyl]-1,4-diazepan-2-one]
< 1000 | < 100 | O=C(c1cc2c(cn1)c(-c1cnc3c(F)cc(F)cn13)nn2CC(F)(F)F)N1CCC(O)C(F)(F)C1 (stereo not shown) [Compound 203, (3,3-Difluoro-4-hydroxy-piperidin-1-yl)-[3-(6,8-difluoro-imidazo[1,2-a]pyridin-3-yl)-1-(2,2,2-trifluoro-ethyl)-1H-pyrazolo[4,3-c]pyridin-6-yl]-methanone]
< 100 | < 100 | CC1(O)CCN(C(=O)c2cc3c(cn2)c(-c2coc4ccccc24)nn3CC(F)(F)F)CC1 [Compound 208, [3-Benzofuran-3-yl-1-(2,2,2-trifluoro-ethyl)-1H-pyrazolo[4,3-c]pyridin-6-yl]-(4-hydroxy-4-methyl-piperidin-1-yl)-methanone]
< 1000 | < 100 | CCC1(O)C2CCC1CN(C(=O)c1cc3c(cn1)c(-c1coc4ccccc14)nn3CC(F)(F)F)C2 (stereo not drawn) [Compound 210, [3-Benzofuran-3-yl-1-(2,2,2-trifluoro-ethyl)-1H-pyrazolo[4,3-c]pyridin-6-yl]-(8-exo-ethyl-8-endo-hydroxy-3-aza-bicyclo[3.2.1]oct-3-yl)-methanone]
< 1000 | < 100 | C#CC1(O)C2CCC1CN(C(=O)c1cc3c(cn1)c(-c1coc4ccccc14)nn3CC(F)(F)F)C2 (stereo not shown) [Compound 214]
< 1000 | < 100 | CC1(C)CC(O)CCN1C(=O)c1cc2c(cn1)c(-c1coc3ccccc13)nn2CC(F)(F)F (stereo not shown) [Compound 219, [3-Benzofuran-3-yl-1-(2,2,2-trifluoro-ethyl)-1H-pyrazolo[4,3-c]pyridin-6-yl]-(4-hydroxy-2,2-dimethyl-piperidin-1-yl)-methanone]
